Literature values as cited in US20260014155A1, “TICAGRELOR SOLID DISPERSION, METHOD FOR PREPARING SAME, AND USE THEREOF” (WISDOM PHARMACEUTICAL CO., LTD., priority 2022, published 2026).

Details: low solubility and low permeability

CCCSc1nc(N[C@@H]2C[C@H]2c2ccc(F)c(F)c2)c2nnn([C@@H]3C[C@H](OCCO)[C@@H](O)[C@H]3O)c2n1 [ticagrelor, (1S,2S,3R,5S)-3-[7-{[(1R,2S)-2-(3,4-difluorophenyl)cyclopropyl]amino}-5-(propylthio)-3H-[1,2,3]-triazolo[4,5-d]pyrimidin-3-yl]-5-(2-hydroxyethoxy)cyclopentane-1,2-diol]
biopharmaceutical classification: BCS class 4
